In patent US9200269B2, “β-glucuronidase inhibitor” (priority 2007, dated 2015):

Assays:
[1] = Urine catching pad urine addition test, urine odor intensity; parameters: species or system human; details: six-level score 0 to 5, average of five panelists; inhibitor 1 wt. % of water-absorbent polymer; 30 g human urine, 30° C.
Description: Sensory evaluation of odor was performed by six panelists, the evaluation was based on a six-level odor intensity indication method in which the odor intensity was indicated with an evaluation score of 0 to 5. In the evaluation score, “0” indicates no odor, “1” indicates odor which can be slightly perceived (detection threshold), “2” indicates odor which can be perceived to be urine odor but is weak (perception threshold), “3” indicates odor which can be easily perceived to be urine odor, “4” indicates strong urine odor, and “5” indicates extreme urine odor. The odor intensity was determined at an interval of 0.5.
Specifically, the urine catching pad was prepared by replacing only a water-absorbent polymer in the commercially available urine catching pad “Relief urine catching pad safe absorption (Anshin-Kyusyu)” (manufactured by Kao Corporation) with a water-absorbent polymer wherein the β-glucuronidase inhibitor of the present invention was added. The added amount of the inhibitor to the water-absorbent polymer was 1 wt. % with respect to the water-absorbent polymer, and was equivalent to 1.5 g/m^2 with respect to the urine catching pad.
A urine addition test was performed by using test pieces having dimensions of 19 cm by 7 cm being cut out from the urine catching pad, and using a test piece containing no β-glucuronidase inhibitor as a blank. The test was performed as follows: 30 g of human urine (a mixture of urine from five humans) were added to these test pieces cut out from the urine catching pad, and the urine odor intensity after 1 hour, after 24 hours, and after 48 hours under preservation at 30° C. was evaluated by five panelists based on the six-level odor intensity indication method as described in the item (2) of Reference Example 2.

[2] = molecular target: T1, β-glucuronidase Type VII-A derived from Escherichia coli (Escherichia coli, UniProt P05804); test: Inhibition of β-glucuronidase activity (PNPG substrate, absorbance at 400 nm); type: biochemical; details: 1.6 units/mL enzyme, 37° C., 2 hours, pH 6.8; for Inhibition rate (%) Concentration 0.001%: 0.001 wt % in reaction solution; for inhibition at 0.01 wt % / Inhibition rate (%) Concentration 0.01%: 0.01 wt % in reaction solution; for inhibition at 0.01 wt %: read-out: Inhibition rate (%) Concentration 0.01%; for inhibition at 0.1 wt % / Inhibition rate (%) Concentration 0.1%: 0.1 wt % in reaction solution; for inhibition at 0.1 wt %: read-out: Inhibition rate (%) Concentration 0.1%
T1 construct: purchased Sigma-Aldrich Corporation
Description: 100 μL of a 2 mM PNPG aqueous solution, 40 μL of a 0.5 M phosphate buffer (pH 6.8), 38 μL of ion exchanged water and 2 μL of a 10 or 1 wt % dipropylene glycol (DPG) solution of various compounds or plant extracts were mixed in a bottle γ-ray sterilized in advance, and subsequently 20 μL of a β-glucuronidase aqueous solution adjusted to 16 units/mL was added, in order to allow the enzyme to react in a thermostat bath at 37° C. for 2 hours. Further, in the case of some of compounds, in addition to the above steps, the same experiment was performed using a 0.1 wt % DPG solution as well. As a result, the concentrations of the test compounds and plant extracts in the reaction solution were adjusted to 0.1, 0.01 and 0.001 wt %, respectively. Further, a product prepared by adding DPG in place of the above-mentioned compounds and plant extracts was used as a control, and a product prepared by adding ion exchanged water in place of an enzyme solution was used as a blank for each sample and control, and the respective products were allowed to react for 2 hours in the same manner. It should be noted that the plant extract sample was used as a solvent extract.
The above-mentioned reaction solution was diluted with a 0.2 M glycine buffer (pH 10.4) and measured for its absorbance at a wavelength of 400 nm. The relative activity inhibition rate of a β-glucuronidase was determined by using the obtained measurement value in accordance with the following equation. Absorbance change of control=Absorbance of control−Absorbance of blank for each control Absorbance change of sample=Absorbance of sample−Absorbance of blank for each sample Activity inhibition rate (%)=[(Absorbance change of control−Absorbance change of sample)/Absorbance change of control]×100

T1 sequence (P05804 whole entry): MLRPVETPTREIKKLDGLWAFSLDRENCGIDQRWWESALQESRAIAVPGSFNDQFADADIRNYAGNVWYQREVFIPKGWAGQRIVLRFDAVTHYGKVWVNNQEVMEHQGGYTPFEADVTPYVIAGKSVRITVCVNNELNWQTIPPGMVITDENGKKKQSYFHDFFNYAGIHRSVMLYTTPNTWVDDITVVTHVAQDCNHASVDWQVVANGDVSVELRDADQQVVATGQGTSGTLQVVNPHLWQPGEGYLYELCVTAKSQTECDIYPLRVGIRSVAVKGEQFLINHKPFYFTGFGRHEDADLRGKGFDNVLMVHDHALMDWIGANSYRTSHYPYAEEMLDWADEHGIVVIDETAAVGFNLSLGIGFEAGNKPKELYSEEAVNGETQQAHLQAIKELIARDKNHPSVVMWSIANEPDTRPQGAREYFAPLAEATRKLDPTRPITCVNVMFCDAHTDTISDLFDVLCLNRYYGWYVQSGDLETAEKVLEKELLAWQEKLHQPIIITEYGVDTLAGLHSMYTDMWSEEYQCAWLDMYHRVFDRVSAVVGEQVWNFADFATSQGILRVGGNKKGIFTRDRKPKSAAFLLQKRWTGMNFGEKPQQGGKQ

| Compound | inhibition at 0.01 wt % [2] [%] | inhibition at 0.1 wt % [2] [%] | Inhibition rate (%) Concentration 0.01% [2] [%] | Inhibition rate (%) Concentration 0.1% [2] [%] | further results |
| --- | --- | --- | --- | --- | --- |
| O=C(O)[C@@H](O)[C@H]1OC(=O)[C@H](O)[C@H]1O [D-Glucaro-1,4-lactone, D-glucaro-1,4-lactone, reference compound] | 80.4 | 98 |  |  | Urine odor intensity After 1 hour [1]: 1.6; Urine odor intensity After 24 hours [1]: 1.9; Urine odor intensity After 48 hours [1]: 3.3; Inhibition rate (%) Concentration 0.001% [2]: 31.1% |
| CC(CCO)CCc1ccccc1 (stereo not shown) [Phenylhexanol, 3-methyl-5-phenyl-1-pentanol] | 52.1 | 61.2 |  |  |  |
| CC(=O)OC(C)(C)C1CC=C(C)CC1 (stereo not shown) [Terpinyl acetate, terpinyl acetate] |  |  | 65.5 | 94.7 |  |
| COc1cc(C=O)ccc1O [Vanillin, vanillin] | 49.5 | 82.1 |  |  |  |
| CC/C=C\CCOC(=O)c1ccccc1 [cis-3-Hexenyl benzoate, cis-3-hexenyl benzoate] | 45.1 | 80.6 |  |  |  |
| CC/C=C\CC1=C(C)CCC1=O [cis-Jasmone, cis-jasmone] |  |  | 77.2 | 99.2 | Inhibition rate (%) Concentration 0.001% [2]: 24.8% |
| COc1ccc(C)cc1 [p-Cresyl methyl ether, p-cresyl methyl ether] | 24 | 85.9 |  |  |  |
| C/C=C\C(=O)C1C(C)=CCCC1(C)C (stereo not drawn) [α-Damascone, α-damascone] |  |  | 42.6 | 89.9 |  |
| CC(=O)/C=C/C1C(C)=CCCC1(C)C (stereo not drawn) [α-Ionone, α-ionone] |  |  | 43.3 | 91.8 |  |
| CCC(=O)/C=C/C1C(C)=CCCC1(C)C (stereo not drawn) [α-Methylionone, α-methylionone] |  |  | 57.5 | 91.1 |  |
| C/C=C/C(=O)C1=C(C)CCCC1(C)C [β-Damascone, β-damascone] |  |  | 39.5 | 77.3 |  |
| CC(=O)/C=C/C1=C(C)CCCC1(C)C [β-Ionone, β-ionone] |  |  | 40.2 | 81.1 |  |
| CC(=O)/C(C)=C/C1C(C)=CCCC1(C)C (stereo not shown) [γ-Methylionone, γ-methylionone] |  |  | 84.1 | 98.5 | Inhibition rate (%) Concentration 0.001% [2]: 22.0% |
| vetiverol |  |  | 88.0 | 97.1 |  |
